From patent publication EP4817688A2, “DEGRADING PKCß1 TO TREAT CANCER” (Mayo Foundation for Medical Education and Research, priority 2020, dated 2022)
Where “and” joins values, the source holds several entries; their conditions need not be identical. Identical values can stand only once.

Assay: pharmacokinetics in female CD1 mice, plasma by UPLC-MS/MS
Format: in vivo
Details: plasma
Experimental: ENDX PROTAC 7 and PROTAC 9 pharmacokinetics were characterized in female CD1 mice. Blood samples were collected from mice anesthetized under isoflurane via retro-orbital eye bleed into tubes containing EDTA and immediately chilled on ice. NaF was added to the EDTA collection tubes to help stabilize the drug in whole blood for the second IV and IP studies with ENDX PROTAC 9, and for the IV and oral studies with PROTAC 7. Plasma and red blood cells were separated immediately by centrifugation in a refrigerated centrifuge at 4°C. The plasma was transferred to a separate tube and immediately frozen at -20°C.
For IV dosing, ENDX PROTAC 9 was dissolved in 10% DMSO, 10% PEG 400, and 80% normal saline for a final concentration of 0.2 mg/mL ENDX PROTAC 9 for the 1 mg/kg IV doses. ENDX PROAC 7 was dissolved in 15% DMSO, 9.44% PEG400, and 55% normal saline for a final concentration of 0.19 mg/mL for the 1 mg/kg IV doses. Blood samples (3 mice per time-point) were collected 5 minutes, 15 minutes, 0.5 hour, 1 hour, 2 hours, 4 hours, 8 hours, and 24 hours after administration of the ENDX PROTAC. […] For oral dosing, ENDX PROTAC 9 (10 mg/kg) and ENDX PROTAC 7 (10 mg/kg) were suspended in 1 mM ascorbic acid:PEG400, 1:1 v/v for a final concentration of 1.0 mg/mL ENDX PROTAC. Blood samples (three mice per time-point) were collected 15 minutes, 0.5 hour, 1 hour, 2 hours, 4 hours, 6 hours, 8 hours, and 24 hours after administering the ENDX PROTAC. For I.P. dosing, ENDX PROTAC 9 (4 mg/kg) was prepared in 1 mM ascorbic acid:PEG400, 1:1 v/v for a final concentration of 0.4 mg/mL ENDX PROTAC 9. Blood samples (three mice per time-point) were collected 15 minutes, 0.5 hour, 1 hour, 2 hours, 4 hours, 6 hours, 8 hours, and 24 hours after administration. Plasma concentrations of ENDX PROTAC 7 and 9 were measured using UPLC-MS/MS.

Concentration ENDX PROTAC 9 (IV 1 mg/kg, EDTA without NaF, 120 minutes, individual mice, listed as ENDX PROTAC 9, 1 mg/kg): 0.8988 ng/ml and 0.4446 ng/ml and BLD | Concentration ENDX PROTAC 9 (IV 1 mg/kg, EDTA without NaF, 240 minutes, individual mice, listed as ENDX PROTAC 9, 1 mg/kg): BLD and 0.0197 ng/ml and 0.3141 ng/ml | Concentration ENDX PROTAC 9 (IV 1 mg/kg, EDTA without NaF, 480 minutes, individual mice, listed as ENDX PROTAC 9, 1 mg/kg): 0 ng/ml and BLD (2×) | Concentration ENDX PROTAC 9 (IV 1 mg/kg, EDTA without NaF, 1440 minutes, individual mice, listed as ENDX PROTAC 9, 1 mg/kg): BLD and 0 ng/ml (2×) | Concentration ENDX PROTAC 9 (IV 1 mg/kg, all data (both IV studies), 30 minutes, listed as ENDX PROTAC 9, 1 mg/kg): 1.662 ng/mL | Concentration ENDX PROTAC 9 (IV 1 mg/kg, all data (both IV studies), 120 minutes, listed as ENDX PROTAC 9, 1 mg/kg): BLD | Concentration ENDX PROTAC 9 (IV 1 mg/kg, all data (both IV studies), 240 minutes, listed as ENDX PROTAC 9, 1 mg/kg): BLD | Concentration ENDX PROTAC 9 (IV 1 mg/kg, second study (NaF), 15 minutes, individual mice, listed as ENDX PROTAC 9, 1 mg/kg): 8.2 ng/mL and 33.8 ng/mL and 10.72 ng/mL | Concentration ENDX PROTAC 9 (IV 1 mg/kg, second study (NaF), 240 minutes, individual mice, listed as ENDX PROTAC 9, 1 mg/kg): 0.19 ng/mL and 1.11 ng/mL and 0.39 ng/mL | Concentration ENDX PROTAC 9 (PO 10 mg/kg, 15 minutes, individual mice, listed as ENDX PROTAC 9, 10 mg/kg): 6.95 ng/mL and 4.77 ng/mL and 2.11 ng/mL | Concentration ENDX PROTAC 9 (PO 10 mg/kg, 30 minutes, individual mice, listed as ENDX PROTAC 9, 10 mg/kg): 0.58 ng/mL and 1.05 ng/mL | Concentration ENDX PROTAC 9 (PO 10 mg/kg, 60 minutes, individual mice, listed as ENDX PROTAC 9, 10 mg/kg): 6.78 ng/mL and 15.8 ng/mL and 10.6 ng/mL | Concentration ENDX PROTAC 9 (PO 10 mg/kg, 120 minutes, individual mice, listed as ENDX PROTAC 9, 10 mg/kg): 0.25 ng/ml and BLD* and 0.55 ng/ml | Concentration ENDX PROTAC 9 (PO 10 mg/kg, 240 minutes, individual mice, listed as ENDX PROTAC 9, 10 mg/kg): 0.9 ng/mL and 0.16 ng/mL and 0.14 ng/mL | Concentration ENDX PROTAC 9 (PO 10 mg/kg, 360 minutes, individual mice, listed as ENDX PROTAC 9, 10 mg/kg): 2.61 ng/ml and BLD and 0.05 ng/ml | Concentration ENDX PROTAC 9 (PO 10 mg/kg, 480 minutes, individual mice, listed as ENDX PROTAC 9, 10 mg/kg): BLD | Concentration ENDX PROTAC 9 (PO 10 mg/kg, 1440 minutes, individual mice): BLD | Concentration ENDX PROTAC 9 (TABLE 7, titled PO pk (10 mg/kg), 15 minutes, individual mice, listed as ENDX PROTAC 9, 10 mg/kg): 111.19 ng/mL and 133.09 ng/mL | Concentration ENDX PROTAC 9 (TABLE 7, titled PO pk (10 mg/kg), 30 minutes, individual mice, listed as ENDX PROTAC 9, 10 mg/kg): 156.42 ng/mL and 83.56 ng/mL | Concentration ENDX PROTAC 9 (TABLE 7, titled PO pk (10 mg/kg), 60 minutes, individual mice, listed as ENDX PROTAC 9, 10 mg/kg): 141.51 ng/mL and 93.93 ng/mL | Concentration ENDX PROTAC 9 (TABLE 7, titled PO pk (10 mg/kg), 360 minutes, individual mice, listed as ENDX PROTAC 9, 10 mg/kg): 1.64 ng/mL and 0.75 ng/mL and 2.62 ng/mL | Concentration ENDX PROTAC 9 (TABLE 7, titled PO pk (10 mg/kg), 480 minutes, individual mice, listed as ENDX PROTAC 9, 10 mg/kg): 7.23 ng/mL and 1.2 ng/mL | Concentration ENDX PROTAC 9 (TABLE 7, titled PO pk (10 mg/kg), 1440 minutes, individual mice, listed as ENDX PROTAC 9, 10 mg/kg): 1.01 ng/mL and 0.33 ng/mL and 0.12 ng/mL
SMILES: CCC(=C(c1ccc(O)cc1)c1ccc(OCCN(C)C(=O)COCCOCCNC(=O)Cc2ccc3c(c2)CN(C2CCC(=O)NC2=O)C3=O)cc1)c1ccccc1 (stereo not shown) [TC-Pr-009, 2-[2-(2-2-[2-(2,6-dioxopiperidin-3-yl)-1-oxo-2,3-dihydro-1H-isoindol-5-yl]acetamidoethoxy)ethoxy]-N-(2-4-[1-(4-hydroxyphenyl)-2-phenylbut-1-en-1-yl]phenoxyethyl)-N-methylacetamide]
Concentration ENDX PROTAC 9 (IV 1 mg/kg, EDTA without NaF, 60 minutes, individual mice, listed as ENDX PROTAC 9, 1 mg/kg): 0.5069 ng/mL and 0.2706 ng/mL and 0.0179 ng/mL | Concentration ENDX PROTAC 9 (IV 1 mg/kg, second study (NaF), 5 minutes, individual mice, listed as ENDX PROTAC 9, 1 mg/kg): 86.31 ng/mL and 91.46 ng/mL and 34.87 ng/mL | Concentration ENDX PROTAC 9 (IV 1 mg/kg, second study (NaF), 60 minutes, individual mice, listed as ENDX PROTAC 9, 1 mg/kg): 1.18 ng/mL and 1.26 ng/mL and 12.64 ng/mL | Concentration ENDX PROTAC 9 (TABLE 7, titled PO pk (10 mg/kg), 120 minutes, individual mice, listed as ENDX PROTAC 9, 10 mg/kg): 60.32 ng/mL and 106.7 ng/mL and 40.51 ng/mL | Concentration ENDX PROTAC 9 (TABLE 7, titled PO pk (10 mg/kg), 240 minutes, individual mice, listed as ENDX PROTAC 9, 10 mg/kg): 17.29 ng/mL and 5.09 ng/mL and 30.55 ng/mL
